Measurements published in ChEMBL document CHEMBL4627368, “Acylhydrazones as isoniazid derivatives with multi-target profiles for the treatment of Alzheimer's disease: Radical scavenging, myeloperoxidase/acetylcholinesterase inhibition and biometal chelation” (Bioorg Med Chem, 2020).
Active and inactive are the calls of the source. The rule behind the calls is not given here.

Columns and labels:
[1] = Antioxidant activity assessed as DPPH radical scavenging activity at 100 uM after 30 mins (reference value: 1.9 +/- 1.2%); type: functional
[2] = target: Acetylcholinesterase (Electrophorus electricus) (UniProt O42275); experiment: Inhibition of Electrophorus electricus AChE at 100 uM using acetylthiocholine iodide as substrate preincubated for 30 mins followed by substrate addition and measured after 10 mins by Ellman's method
Acetylcholinesterase (Electrophorus electricus), sequence (O42275 24-633 limits assumed): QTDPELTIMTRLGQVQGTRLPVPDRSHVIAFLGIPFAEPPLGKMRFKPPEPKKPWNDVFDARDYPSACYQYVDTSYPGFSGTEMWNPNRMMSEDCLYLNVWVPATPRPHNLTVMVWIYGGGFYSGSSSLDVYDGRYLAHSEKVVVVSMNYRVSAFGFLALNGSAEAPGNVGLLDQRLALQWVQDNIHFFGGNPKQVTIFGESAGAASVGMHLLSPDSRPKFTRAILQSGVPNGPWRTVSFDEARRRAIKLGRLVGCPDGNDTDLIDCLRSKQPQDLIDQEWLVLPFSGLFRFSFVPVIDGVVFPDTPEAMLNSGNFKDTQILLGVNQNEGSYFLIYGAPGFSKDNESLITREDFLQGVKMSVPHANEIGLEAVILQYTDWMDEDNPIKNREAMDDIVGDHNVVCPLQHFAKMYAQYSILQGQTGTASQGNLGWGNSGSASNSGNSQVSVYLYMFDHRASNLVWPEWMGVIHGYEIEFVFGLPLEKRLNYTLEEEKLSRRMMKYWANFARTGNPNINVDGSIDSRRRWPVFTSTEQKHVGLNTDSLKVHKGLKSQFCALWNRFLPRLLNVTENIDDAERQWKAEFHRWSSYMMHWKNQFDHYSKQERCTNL

[3] = Antioxidant activity assessed as DPPH radical scavenging activity after 30 mins; type: functional
Rattus norvegicus = species on record: Rattus norvegicus; experiment: Inhibition of rat bone marrow myeloperoxidase using H2O2 as substrate at 10 uM after 20 mins by TMB based method (reference value: - 1.4 +/- 12.7%)
[4] = Inhibition of rat bone marrow myeloperoxidase using H2O2 as substrate after 20 mins by TMB based method
[5] = Metal chelating activity assessed as compound-Ca2+ complex formation at 20 uM in presence of CaCl2 after 2 hrs by UV-visible spectrophotometric analysis
[6] = Metal chelating activity assessed as compound-Mg2+ complex formation at 20 uM in presence of MgCl2 after 2 hrs by UV-visible spectrophotometric analysis
[7] = target: Acetylcholinesterase (Electrophorus electricus) (UniProt O42275); experiment: Non-competitive mixed inhibition of Electrophorus electricus AChE using acetylthiocholine iodide as substrate preincubated for 30 mins followed by substrate addition and measured after 10 mins by Lineweaver-Burk plot analysis
[8] = Metal chelating activity assessed as compound-Cu2+ complex formation at 20 uM in presence of Cucl2 after 2 hrs by UV-visible spectrophotometric analysis
[9] = Metal chelating activity assessed as compound-Fe2+ complex formation at 20 uM in presence of FeCl2 after 2 hrs by UV-visible spectrophotometric analysis
[10] = Metal chelating activity assessed as compound-Fe2+ complex stoichiometry ratio of 2:1 at 20 uM in presence of FeCl2 after 2 hrs by Job's plot analysis
[11] = Metal chelating activity assessed as compound-Zn2+ complex formation at 20 uM in presence of ZnCl2 after 2 hrs by UV-visible spectrophotometric analysis
[12] = Metal chelating activity assessed as compound-Zn2+ complex stoichiometry ratio of 2:1 at 20 uM in presence of ZnCl2 after 2 hrs by Job's plot analysis

| SMILES | Activity [1] | inhibition [2] | inhibition (Rattus norvegicus) | IC50 [4] | further results |
| --- | --- | --- | --- | --- | --- |
| COc1cc(/C=N/NC(=O)c2ccncc2)ccc1O [FTIVAZIDE] | 76.7% | 23.1% | 17.3% | – | IC50 [3]: 33.6 µM |
| O=C(N/N=C/c1ccccn1)c1ccncc1 | -0.6% | 24.5% | 0.3% | – | – |
| O=C(N/N=C/c1ccc(F)cc1)c1ccncc1 | 8.1% | 16.3% | 4.6% | – | – |
| O=C(N/N=C/c1ccccc1O)c1ccncc1 | 5.3% | 3% | 45.3% | – | – |
| O=c1c(O)c(-c2ccc(O)c(O)c2)oc2cc(O)cc(O)c12 [QUERCETIN] | 96.3% | – | 96.3% | – | IC50 [3]: 15.3 µM |
| COc1ccc(/C=N/NC(=O)c2ccncc2)cc1 | 2.4% | 8% | 6% | – | – |
| O=C(N/N=C/c1cc(O)ccc1O)c1ccncc1 | 92.4% | 0.3% | 100% | 4.8 µM | IC50 [3]: 18.3 µM |
| O=C(N/N=C/c1c[nH]c2ccccc12)c1ccncc1 | 28.8% | 5.5% | 82.2% | 1.5 µM | – |
| O=C(N/N=C/c1ccc(Cl)c(Cl)c1)c1ccncc1 | 3.9% | 14% | -2.4% | – | – |
| CCN(C)C(=O)Oc1cccc([C@H](C)N(C)C)c1 | 0.2% | 59.6% | 17.1% | – | – |
| O=C(N/N=C/c1ccc([N+](=O)[O-])cc1)c1ccncc1 | 2.5% | 12.7% | 32% | – | – |
| O=C(N/N=C/c1cc(Br)ccc1O)c1ccncc1 | 3.9% | 6.8% | 90% | 4.3 µM | – |
| CN(C)c1ccc(/C=N/NC(=O)c2ccncc2)cc1 [N'-(4-DIMETHYLAMINOBENZYLIDENE)ISONICOTINOHYDRAZIDE] | 6.3% | 6.9% | 96.1% | 1.4 µM | – |
| O=C(N/N=C/c1ccc(O)cc1)c1ccncc1 | 28.7% | 10% | – | – | – |
| O=C(N/N=C/c1cccc([N+](=O)[O-])c1)c1ccncc1 | 2% | 36.2% | -10% | – | – |
| NNC(=O)c1ccncc1 [ISONIAZID] | 91.3% | 5.8% | 99% | 3.9 µM | IC50 [3]: 22.9 µM |
| O=C(N/N=C/c1coc2ccccc2c1=O)c1ccncc1 | 82.2% | 54.2% | 80.1% | 5.3 µM | Activity [5]: inactive; Activity [6]: inactive; inhibition [7]: Active; Activity [8]: Active; Activity [9]: Active; Activity [10]: Active; Activity [11]: Active; Activity [12]: Active; IC50 [3]: 42.4 µM |
| O=C(N/N=C/c1ccccc1)c1ccncc1 | 3.3% | 16.5% | 5.1% | – | – |
